Assay results as given in US6596726B1, “Tricyclic compounds capable of inhibiting tyrosine kinases of the epidermal growth factor receptor family” (Warner Lambert Company, priority 1994, dated 2003).

Legend:
[1] = tested on: SK-BR-3 human breast carcinoma overexpressing erbB-2 and erbB-3; assay: Growth inhibition assay (antiproliferative), SK-BR-3; assay type: cell-based; conditions: 72 h, SK-BR-3 cells, 3 days
Protocol: Cells (2×10^4) were seeded in 24-well plates (1.7×1.6 cm, flat bottom) in two mls of medium with or without various concentrations of drug. Plates were incubated for 3 days at 37° in a humidified atmosphere containing 5% CO2 in air. Cell growth was determined by cell count with a Coulter Model AM electronic cell counter (Coulter Electronics, Inc., Hialeah, Fla.).

[2] = tested on: B104-1-1 NIH-3T3 mouse fibroblasts transfected by the neu oncogene; assay: Growth inhibition assay (antiproliferative), B104-1-1; assay type: cell-based; conditions: 72 h, B104-1-1 cells, 3 days
Source text: Antiproliferative Properties of Tyrosine Kinase Inhibitors IC50 (nM)
B104-1-1—NIH-3T3 mouse fibroblasts transfected by the neu oncogene: Stern et al., Science, 234, pp. 321-324 (1987);

[3] = tested on: erbB-2, 3, 4 autophosphorylation in SK-BR-3 breast tumor cells; assay: Inhibition of conditioned media-induced autophosphorylation in SK-BR-3 breast tumor cells; assay type: cell-based, human; conditions: SK-BR-3 cells, read-out: SKBR-3 IC50
Protocol: Cells were grown to 100% confluency in 100 mm Petrie dishes (Corning). After the cells were treated for 5 minutes with either EGF (epidermal growth factor), PDGF, or bFGF (basic fibroblast growth factor) (20 ng/ml) or 1 ml of conditioned media from MDA-MB-231 cells, the media was removed and the monolayer scraped into 1 ml of ice cold lysis buffer (50 mM Hepes, pH 7.5, 150 mM NaCl, 10% glycerol, 1% triton X-100, 1 mM EDTA, 1 mM EGTA, 10 mM sodium pyrophosphate, 30 mM p-nitrophenyl phosphate, 1 mM orthovanadate, 50 mM sodium fluoride, 1 mM phenylmethylsulfonylfluoride, 10 μg/ml of aprotinin, and 10 μg/ml of leupeptin). The lysate was transferred to a microfuge tube (small centrifuge that holds 1-2 ml plastic centrifuge tubes), allowed to sit on ice 15 minutes and centrifuged 5 minutes at 10,000×g. The supernatant was transferred to a clean microfuge tube and 5 μg of antibody was added to designated samples. The tubes were rotated for 2 hours at 4° C. after which 25 μl of protein A sepharose was added and then rotation continued for at least 2 more hours. The protein A separose was washed 5 times with 50 mM Hepes, pH 7.5, 150 mM NaCl, 10% glycerol and 0.02% sodium azide. The precipitates were resuspended with 30 μl of Laemlli buffer (Laemmli, NATURE, […], pp. 680-685, 1970), heated to 100° C. for 5 minutes and centrifuged to obtain the supernatant. Whole cell extracts were made by scraping cells grown in the wells of 6 well plates into 0.2 ml of boiling Laemmli buffer. The extract were transferred to a microfuge tube and heated to 100° C. for 5 minutes. The entire supernatant from the immunoprecipitation or 35 μl of the whole cell extract was loaded onto a polyacrylamide gel (4-20%) and electrophoresis carried out by the method of Laemlli (Laemmli, 1970). Proteins in the gel were electrophoretically transferred to nitrocellulose and the membrane was washed once in 10 mM Tris buffer, pH 7.2, 150 mM NaCl, 0.01% Azide (TNA) and blocked overnight in TNA containing 5% bovine serum albumin and 1% ovalbumin (blocking buffer). The membrane was blotted for 2 hours with the primary antibody (1 μg/ml in blocking buffer) and then washed 2 times sequentially in TNA, TNA containing 0.05% Tween-20 and 0.05% Nonidet P-40 (commercially available detergent) and TNA. The membranes were then incubated for 2 hours in blocking buffer containing 0.1 μCi/ml of [^125I] protein A and then washed again as above. After the blots were dry they were loaded into a film cassette and exposed to X-AR X-ray film for 1-7 days. Protein A is a bacterial protein that specifically bonds certain IgG subtypes and is useful in binding to and isolating antibody-antigen complexes.
Inhibition of EGF-Induced Autophosphorylation in A431 Epidermoid Carcinoma Cells and Conditioned Media-Induced Autophosphorylation in SK-BR-3 Breast Tumor Cells by Compounds of the Current Invention

Question: Which results are given for `Brc1cccc(Nc2ncnc3cc4[nH]cnc4cc23)c1` [Example 6, 4-(3-Bromoanilino)imidazolo[4,5-g]quinazoline]?
Answer: IC50 [1]: 200 nM; IC50 [2]: 3200 nM; IC50 [3]: 55 nM
